Molecular target: T1, Kv7.2/7.3 (Homo sapiens, UniProt O43525+O43526)
T1 construct: Kv7.2 tetracycline-induced, Kv7.3 constitutive
Assay: Kv7.2/7.3 Activation Assay (Thallium Flux Assay)
Format: cell-based
Settings: hKV7.2/7.3 cell line; test compound at single concentration of 10 μM; fluorescence at 90 sec normalized to positive control (retigabine, 30 μM)
Excerpt: The Thallium Flux Assay is used as a surrogate indicator of potassium channel activity.
The experimental protocol was adapted from the FluxOR™ II Green Potassium Ion Channel Assay User Guide (Pub. No. MAN0016084, Invitrogen). Conditions were optimized for the Kv7.2/7.3 cell line.
Cell Line: The hKV7.2/7.3 cell line was obtained from Chantest (cat. #CT6147).
Cell Culture: Kv7.2/7.3 cells were maintained in a media containing DMEM/F12; 50/50 (Fisher 11-330), 10% Fetal Bovine Serum (FBS) (Fisher 26-140), 100 units/mL Penicillin-Streptomycin (Fisher 15-140), 0.005 mg/ml Blasticidin (InvivoGen ant-bl-1), 0.5 mg/mL Geneticin (InvivoGen ant-gn-5), and 0.1 mg/mL Zeocin (Fisher R25001). One day prior to experimentation, cells were plated in 96 well clear bottom plates (Corning cat. #353219) in a media without Blasticidin, Geneticin, or Zeocin. In this cell line Kv7.3 channel expression is controlled by a constitutive promoter. Kv7.2 channel expression was induced by adding tetracycline (Sigma T7660) at a final concentration of 10 ng/mL overnight in a cell culture incubator at 37° C. and 5% CO2. On the day of assay, the cell culture medium in the 96-well plates was replaced by assay buffer containing the thallium-sensitive fluorescent sensor, FluxOR II Green prepared according to manufacturer's instructions. The 96-well plates were then incubated for 1 h at 37° C. Following the incubation, the FluxOR II Green-containing solution was replaced with extracellular solution.
Test Compound Plates: The test compound is diluted in a mixture of 0.1% DMSO/extracellular solution at a single concentration of 10 μM. Dilutions were made on a Biomek NXP (BECKMAN COULTER). Extracellular solution contained (in mM: 145 NaCl, 4 KCl, 2 CaCl2), 1 MgCl2, 10 HEPES, and 10 Glucose, pH 7.4).
Measurement and data analysis: Thallium-flux-mediated changes in intracellular fluorescence were made using a plate reader (Enspire, Perkin Elmer) set with an excitation wavelength of 475 nm and an emission wavelength of 530 nm. After a 15 sec baseline measurement, the stimulus buffer containing thallium and potassium was added to the 96-well plate containing FluxOR II Green-loaded cells and test compounds. Fluorescence values at 90 sec were normalized to the positive control (retigabine, 30 μM) and test compound activities were assigned categories according to the formula: “No Activity <0.15, “+” Moderate Activity 0.15-0.7, and “++” High Activity >0.7.

For `Cn1nc(NC(=O)C2C(C)(C)C2(C)C)c(C2CCC2)c1-c1ccc(OC(F)(F)F)cc1` [Compound 51, N-(4-cyclobutyl-1-methyl-5-(4-(trifluoromethoxy)phenyl)-1H-pyrazol-3-yl)-2,2,3,3-tetramethylcyclopropane-1-carboxamide], which “Kv7.2/7.3 Activity” value is on record?
Its value is “+ (“+” Moderate Activity 0.15-0.7)”.

For `Cn1nc(NC(=O)[C@H]2C(C)(C)C2(F)F)c(C2CCC2)c1-c1ccc(OC(F)(F)F)cc1` [Compound 52, (R)-N-(4-cyclobutyl-1-methyl-5-(4-(trifluoromethoxy)phenyl)-1H-pyrazol-3-yl)-2,2-difluoro-3,3-dimethylcyclopropane-1-carboxamide], which “Kv7.2/7.3 Activity” value is on record?
The value was “+ (“+” Moderate Activity 0.15-0.7)”.

With `Cn1nc(NC(=O)C[C@@H]2CC(F)(F)C2(F)F)c(C2CCC2)c1-c1ccc(S(C)(=O)=O)cc1` [Compound 53, (R)-N-(4-cyclobutyl-1-methyl-5-(4-(methylsulfonyl)phenyl)-1H-pyrazol-3-yl)-2-(2,2,3,3-tetrafluorocyclobutyl)acetamide] as the compound, how does the “Kv7.2/7.3 Activity” value read?
Its value is “− (“−” No Activity < 0.15)”.

How did the “Kv7.2/7.3 Activity” value turn out when `Cn1nc(NC(=O)C[C@H]2CC(F)(F)C2(F)F)c(C2CCC2)c1-c1ccc(S(C)(=O)=O)cc1` [Compound 54, (S)-N-(4-cyclobutyl-1-methyl-5-(4-(methylsulfonyl)phenyl)-1H-pyrazol-3-yl)-2-(2,2,3,3-tetrafluorocyclobutyl)acetamide] was run?
The value was “− (“−” No Activity < 0.15)”.

With `Cn1nc(NC(=O)CC(C)(C)O)c(C2CCC2)c1-c1ccc(OC(F)(F)F)cc1` [Compound 55, N-(4-cyclobutyl-1-methyl-5-(4-(trifluoromethoxy)phenyl)-1H-pyrazol-3-yl)-3-hydroxy-3-methylbutanamide] as the compound, how does the “Kv7.2/7.3 Activity” value read?
Its value is “+ (“+” Moderate Activity 0.15-0.7)”.

`COc1ccc(-c2c(C3CCC3)c(NC(=O)C[C@@H]3CC(F)(F)C3(F)F)nn2C)cc1` [Compound 56, (R)-N-(4-cyclobutyl-5-(4-methoxyphenyl)-1-methyl-1H-pyrazol-3-yl)-2-(2,2,3,3-tetrafluorocyclobutyl)acetamide] was tested. Which “Kv7.2/7.3 Activity” value did it give?
The value was “++ (“++” High Activity ≥ 0.7)”.

For `COc1ccc(-c2c(C3CCC3)c(NC(=O)C[C@H]3CC(F)(F)C3(F)F)nn2C)cc1` [Compound 57, (S)-N-(4-cyclobutyl-5-(4-methoxyphenyl)-1-methyl-1H-pyrazol-3-yl)-2-(2,2,3,3-tetrafluorocyclobutyl)acetamide], which “Kv7.2/7.3 Activity” value is on record?
The value was “++ (“++” High Activity ≥ 0.7)”.

Which “Kv7.2/7.3 Activity” value does the source give for `O=C(C[C@@H]1CC(F)(F)C1(F)F)Nc1nn(CCO)c(-c2ccc(F)cc2)c1C1CCC1` [Compound 58, (R)-N-(4-cyclobutyl-5-(4-fluorophenyl)-1-(2-hydroxyethyl)-1H-pyrazol-3-yl)-2-(2,2,3,3-tetrafluorocyclobutyl)acetamide] here?
The value was “++ (“++” High Activity ≥ 0.7)”.

`Cn1nc(NC(=O)C[C@@H]2CC(F)(F)C2(F)F)c(C2CCC2)c1-c1cnc(C(F)(F)F)s1` [Compound 59, (R)-N-(4-cyclobutyl-1-methyl-5-(2-(trifluoromethyl)thiazol-5-yl)-1H-pyrazol-3-yl)-2-(2,2,3,3-tetrafluorocyclobutyl)acetamide] was tested. Which “Kv7.2/7.3 Activity” value did it give?
The value was “+ (“+” Moderate Activity 0.15-0.7)”.

Which “Kv7.2/7.3 Activity” value does the source give for `Cn1nc(NC(=O)C[C@H]2CC(F)(F)C2(F)F)c(C2CCC2)c1-c1cnc(C(F)(F)F)s1` [Compound 60, (S)-N-(4-cyclobutyl-1-methyl-5-(2-(trifluoromethyl)thiazol-5-yl)-1H-pyrazol-3-yl)-2-(2,2,3,3-tetrafluorocyclobutyl)acetamide] here?
The value was “+ (“+” Moderate Activity 0.15-0.7)”.

With `Cn1nc(NC(=O)C[C@@H]2CC(F)(F)C2(F)F)c(C2CCC2)c1CCc1ccccc1` [Compound 61, (R)-N-(4-cyclobutyl-1-methyl-5-phenethyl-1H-pyrazol-3-yl)-2-(2,2,3,3-tetrafluorocyclobutyl)acetamide] as the compound, how does the “Kv7.2/7.3 Activity” value read?
Its value is “++ (“++” High Activity ≥ 0.7)”.

`Cn1nc(NC(=O)C[C@H]2CC(F)(F)C2(F)F)c(C2CCC2)c1CCc1ccccc1` [Compound 62, (S)-N-(4-cyclobutyl-1-methyl-5-phenethyl-1H-pyrazol-3-yl)-2-(2,2,3,3-tetrafluorocyclobutyl)acetamide] was tested. Which “Kv7.2/7.3 Activity” value did it give?
The value was “++ (“++” High Activity ≥ 0.7)”.

`Cn1nc(NC(=O)C[C@@H]2CC(F)(F)C2(F)F)c(C2CCC2)c1Cc1ccc(OC(F)(F)F)cc1` [Compound 63, (R)-N-(4-cyclobutyl-1-methyl-5-(4-(trifluoromethoxy)benzyl)-1H-pyrazol-3-yl)-2-(2,2,3,3-tetrafluorocyclobutyl)acetamide] was tested. Which “Kv7.2/7.3 Activity” value did it give?
The value was “++ (“++” High Activity ≥ 0.7)”.

`Cn1nc(NC(=O)C[C@H]2CC(F)(F)C2(F)F)c(C2CCC2)c1Cc1ccc(OC(F)(F)F)cc1` [Compound 64, (S)-N-(4-cyclobutyl-1-methyl-5-(4-(trifluoromethoxy)benzyl)-1H-pyrazol-3-yl)-2-(2,2,3,3-tetrafluorocyclobutyl)acetamide] was tested. Which “Kv7.2/7.3 Activity” value did it give?
Its value is “+ (“+” Moderate Activity 0.15-0.7)”.

Which “Kv7.2/7.3 Activity” value does the source give for `O=C(C[C@@H]1CC(F)(F)C1(F)F)Nc1nn(CCO)c(Cc2ccccc2)c1C1CCC1` [Compound 65, (R)-N-(5-benzyl-4-cyclobutyl-1-(2-hydroxyethyl)-1H-pyrazol-3-yl)-2-(2,2,3,3-tetrafluorocyclobutyl)acetamide] here?
Its value is “++ (“++” High Activity ≥ 0.7)”.

Which “Kv7.2/7.3 Activity” value does the source give for `Cn1nc(NC(=O)C[C@@H]2CC(F)(F)C2(F)F)c(C2CCC2)c1C1CCCCC1` [Compound 66, (R)-N-(4-cyclobutyl-5-cyclohexyl-1-methyl-1H-pyrazol-3-yl)-2-(2,2,3,3-tetrafluorocyclobutyl)acetamide] here?
The value was “++ (“++” High Activity ≥ 0.7)”.

With `Cn1nc(NC(=O)C[C@H]2CC(F)(F)C2(F)F)c(C2CCC2)c1C1CCCCC1` [Compound 67, (S)-N-(4-cyclobutyl-5-cyclohexyl-1-methyl-1H-pyrazol-3-yl)-2-(2,2,3,3-tetrafluorocyclobutyl)acetamide] as the compound, how does the “Kv7.2/7.3 Activity” value read?
The value was “+ (“+” Moderate Activity 0.15-0.7)”.

How did the “Kv7.2/7.3 Activity” value turn out when `Cn1nc(NC(=O)CC(C)(C)C(F)(F)F)c(C2CCC2)c1C1CCCCC1` [Compound 68, N-(4-cyclobutyl-5-cyclohexyl-1-methyl-1H-pyrazol-3-yl)-4,4,4-trifluoro-3,3-dimethylbutanamide] was run?
The value was “++ (“++” High Activity ≥ 0.7)”.

`Cn1nc(NC(=O)CC2(C(F)(F)F)CC2)c(C2CCC2)c1C1CCCCC1` [Compound 69, N-(4-cyclobutyl-5-cyclohexyl-1-methyl-1H-pyrazol-3-yl)-2-(1-(trifluoromethyl)cyclopropyl)acetamide] was tested. Which “Kv7.2/7.3 Activity” value did it give?
The value was “+ (“+” Moderate Activity 0.15-0.7)”.

Which “Kv7.2/7.3 Activity” value does the source give for `Cn1nc(NC(=O)CC2CC(F)(F)C2)c(C2CCC2)c1C1CCCCC1` [Compound 70, N-(4-cyclobutyl-5-cyclohexyl-1-methyl-1H-pyrazol-3-yl)-2-(3,3-difluorocyclobutyl)acetamide] here?
The value was “++ (“++” High Activity ≥ 0.7)”.

How did the “Kv7.2/7.3 Activity” value turn out when `Cn1nc(NC(=O)CC2(O)CCCC2)c(C2CCC2)c1-c1ccc(OC(F)(F)F)cc1` [Compound 71, N-(4-cyclobutyl-1-methyl-5-(4-(trifluoromethoxy)phenyl)-1H-pyrazol-3-yl)-2-(1-hydroxycyclopentyl)acetamide] was run?
Its value is “++ (“++” High Activity ≥ 0.7)”.

For `Cn1nc(NC(=O)CC2CC(F)(F)C2)c(C2CCC2)c1-c1ccc(OC(F)(F)F)cc1` [Compound 72, N-(4-cyclobutyl-1-methyl-5-(4-(trifluoromethoxy)phenyl)-1H-pyrazol-3-yl)-2-(3,3-difluorocyclobutyl)acetamide], which “Kv7.2/7.3 Activity” value is on record?
The value was “++ (“++” High Activity ≥ 0.7)”.

With `Cn1nc(NC(=O)CC2(O)CCCC2)c(C2CCC2)c1-c1ccc(F)cc1` [Compound 73, N-(4-cyclobutyl-5-(4-fluorophenyl)-1-methyl-1H-pyrazol-3-yl)-2-(1-hydroxycyclopentyl)acetamide] as the compound, how does the “Kv7.2/7.3 Activity” value read?
The value was “++ (“++” High Activity ≥ 0.7)”.

Which “Kv7.2/7.3 Activity” value does the source give for `Cn1nc(NC(=O)CC2CC(F)(F)C2)c(C2CCC2)c1-c1ccc(F)cc1` [Compound 74, N-(4-cyclobutyl-5-(4-fluorophenyl)-1-methyl-1H-pyrazol-3-yl)-2-(3,3-difluorocyclobutyl)acetamide] here?
The value was “++ (“++” High Activity ≥ 0.7)”.

Source: patent US20250171430A1, “PYRAZOLYL COMPOUNDS AS KV7 CHANNEL ACTIVATORS” (Biohaven Therapeutics Ltd., priority 2022, published 2025)
